# Laboratory results published in ChEMBL document CHEMBL1201862, “PubChem BioAssay data set” (2004).
#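 Tested at 5 concentrations; 48 h exposure; 96-well plates; endpoints linearly interpolated, else capped at highest concentration. GI50 = concentration required for 50% inhibition of growth.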 Activity calls are given as the source filed them. Cut-off read from the data, not from the text of the source: active = GI50 up to about 1.1 µM and inactive = higher.
# Key:
# Assay in all cases: NCI anticancer screen, dose series, 48 h
# 786-0 = system: 786-0
# A498 = system: A498
# A549 = system: A549
# ACHN = system: ACHN
# CCRF-CEM = system: CCRF-CEM
# COLO 205 = system: COLO 205
# DLD-1 = system: DLD-1
# EKVX = system: EKVX
# HCC 2998 = system: HCC 2998
# HCT-116 = system: HCT-116
# HCT-15 = system: HCT-15
# HL-60 = system: HL-60
# HOP-18 = system: HOP-18
# HOP-62 = system: HOP-62
# HOP-92 = system: HOP-92
# HT-29 = system: HT-29
# IGROV-1 = system: IGROV-1
# K562 = system: K562
# KM-20L2 = system: KM-20L2
# KM12 = system: KM12
# LOX IMVI = system: LOX IMVI
# LXFL 529 = system: LXFL 529
# M14 = system: M14
# M19-MEL = system: M19-MEL
# MOLT-4 = system: MOLT-4
# Malme-3M = system: Malme-3M
# NCI-H226 = system: NCI-H226
# NCI-H23 = system: NCI-H23
# NCI-H460 = system: NCI-H460
# NCI-H522 = system: NCI-H522
# OVCAR-3 = system: OVCAR-3
# OVCAR-5 = system: OVCAR-5
# OVCAR-8 = system: OVCAR-8
# RPMI-8226 = system: RPMI-8226
# RXF 393 = system: RXF 393
# RXF 631 = system: RXF 631
# SF-268 = system: SF-268
# SF-295 = system: SF-295
# SF-539 = system: SF-539
# SK-MEL-28 = system: SK-MEL-28
# SK-MEL-2 = system: SK-MEL-2
# SK-MEL-5 = system: SK-MEL-5
# SK-OV-3 = system: SK-OV-3
# SN12C = system: SN12C
# SNB-19 = system: SNB-19
# SNB-75 = system: SNB-75
# SNB-78 = system: SNB-78
# SR = system: SR
# TK-10 = system: TK-10
# U-251 = system: U-251
# UACC-257 = system: UACC-257
# UACC-62 = system: UACC-62
# UO-31 = system: UO-31
# DMS-273 = system: DMS-273
# MCF7 = system: MCF7
# MDA-MB-435 = system: MDA-MB-435
compound,measurement,setting,value
CC(=O)Oc1c(C)c(-c2ccccc2)c(C)c(-c2ccccc2)c1C(=S)c1ccccc1,GI50,786-0,> 100 µM (inactive)
same,GI50,A498,> 100 µM (inactive)
same,GI50,A549,> 100 µM (inactive)
same,GI50,ACHN,> 100 µM (inactive)
same,GI50,CCRF-CEM,> 100 µM (inactive)
same,GI50,COLO 205,> 100 µM (inactive)
same,GI50,DLD-1,> 100 µM (inactive)
same,GI50,EKVX,> 100 µM (inactive)
same,GI50,HCC 2998,> 100 µM (inactive)
same,GI50,HCT-116,> 100 µM (inactive)
same,GI50,HCT-15,> 100 µM
same,GI50,HL-60,35.7 µM (inactive)
same,GI50,HOP-18,> 100 µM (inactive)
same,GI50,HOP-62,> 100 µM (inactive)
same,GI50,HOP-92,> 100 µM (inactive)
same,GI50,HT-29,> 100 µM (inactive)
same,GI50,IGROV-1,> 100 µM (inactive)
same,GI50,K562,> 100 µM (inactive)
same,GI50,KM-20L2,67.3 µM (inactive)
same,GI50,KM12,> 100 µM (inactive)
same,GI50,LOX IMVI,> 100 µM (inactive)
same,GI50,LXFL 529,> 100 µM (inactive)
same,GI50,M14,> 100 µM (inactive)
same,GI50,M19-MEL,> 100 µM (inactive)
same,GI50,MOLT-4,93.3 µM (inactive)
same,GI50,Malme-3M,> 100 µM (inactive)
same,GI50,NCI-H226,> 100 µM (inactive)
same,GI50,NCI-H23,> 100 µM (inactive)
same,GI50,NCI-H460,> 100 µM (inactive)
same,GI50,NCI-H522,> 100 µM (inactive)
same,GI50,OVCAR-3,> 100 µM (inactive)
same,GI50,OVCAR-5,> 100 µM (inactive)
same,GI50,OVCAR-8,> 100 µM (inactive)
same,GI50,RPMI-8226,70.8 µM (inactive)
same,GI50,RXF 393,> 100 µM (inactive)
same,GI50,RXF 631,> 100 µM (inactive)
same,GI50,SF-268,> 100 µM (inactive)
same,GI50,SF-295,> 100 µM (inactive)
same,GI50,SF-539,> 100 µM (inactive)
same,GI50,SK-MEL-28,> 100 µM (inactive)
same,GI50,SK-MEL-2,> 100 µM (inactive)
same,GI50,SK-MEL-5,> 100 µM (inactive)
same,GI50,SK-OV-3,> 100 µM (inactive)
same,GI50,SN12C,> 100 µM (inactive)
same,GI50,SNB-19,> 100 µM (inactive)
same,GI50,SNB-75,> 100 µM (inactive)
same,GI50,SNB-78,> 100 µM (inactive)
same,GI50,SR,41.9 µM (inactive)
same,GI50,TK-10,> 100 µM (inactive)
same,GI50,U-251,> 100 µM (inactive)
same,GI50,UACC-257,> 100 µM (inactive)
same,GI50,UACC-62,> 100 µM (inactive)
same,GI50,UO-31,> 100 µM (inactive)
CC[C@H]1CN2CCc3cc(OC)c(OC)cc3[C@@H]2C[C@@H]1C[C@H]1NCCc2cc(OC)c(OC)cc21,GI50,DLD-1,0.0358 µM (active)
same,GI50,DMS-273,0.043 µM (active)
same,GI50,HCT-116,0.0149 µM (active)
same,GI50,HL-60,0.0148 µM (active)
same,GI50,HOP-18,0.0578 µM (active)
same,GI50,K562,0.0104 µM (active)
same,GI50,KM-20L2,0.0652 µM (active)
same,GI50,LXFL 529,0.0276 µM (active)
same,GI50,MCF7,0.00347 µM (active)
same,GI50,MDA-MB-435,0.0188 µM (active)
same,GI50,MOLT-4,0.0161 µM (active)
same,GI50,NCI-H522,0.0109 µM (active)
same,GI50,RXF 631,0.0311 µM (active)
